Assays:
[1] = test system: Pseudomonas aeruginosa DSM 939; assay: Dry-film bactericide test, modified Swiss Standard SNV195120, water-based interior flat paint; type: cell-based
Description: (§1) The activity of the immobilized BIT/ZnO complex from Example 8 as a dry-film bactericide against Pseudomonas aeruginosa DSM 939 was determined in an ICI UK, Diamond Matt paint, a commercially available water-based interior flat paint (40% acrylic binder) according to the modified Swiss Standard SNV195120, which is described below
The immobilized BIT/ZnO complex from example 8 was incorporated into the water-based interior flat paint at the levels shown in the Table below. The paints were allowed to equilibrate for one week at room temperature.
A quantity of 50 mg of the BIT/ZnO complex was mixed with 100 g of the paint (resulting in 0.05% of the specimen 1 in the table below, the other specimens were prepared accordingly). Round filter papers (5.5 cm diameter) were coated with the test material to a thickness of 150 g/m2 wet and the resulting specimens dried at room temperature.
One half of the test specimen was leached by tap water (9 liters per m^2) in a beaker. The specimens were dried at room temperature and sterilized by gamma radiation from a cobalt 60 source (25 kGy). In the microbiological test, Pseudomonas aeruginosa DSM 939 was used as the bacteria source.
Liquid cultures of each bacterial strain were incubated over night at appropriate temperatures and then diluted 1:100,000 to result in a count of 10^4 cfu per ml. […]

[2] = test system: Pseudomonas aeruginosa DSM 939; assay: Dry-film bactericide test, modified Swiss Standard SNV195120, water-based interior eggshell paint; type: cell-based; parameters: key: 0H: No bacterial growth under the specimen, inhibition zone on the nutrient.; 0: No growth of bacteria under the specimen.; Growth of bacteria under the specimen
Description: The activity of the immobilized BIT/ZnO complex from Example 8 as a dry-film bactericide against Pseudomonas aeruginosa DSM 939 was determined in a commercially available water-based interior eggshell paint (40% acrylic binder with an adhesion promoter) according to the modified Swiss Standard SNV195120. The composition of the paint, which is typically applied in wet rooms, is set out below.
The microbiological test was performed according to the procedure described in Example 14.

[3] = ambient temperature; cited from earlier work
[4] = test system: Pseudomonas aeruginosa DSM 939; assay: JIS Z2801 test after 24 h water leaching (severe environmental conditions), paint of example 15; type: cell-based; settings: specimens leached in water 24 hours; contact time 24 hrs; active conc. 0.05%
Description: (§2) The complex was coated on to Leneta Scrub Resistance test panels, with a dry film thickness of 200 micrometers, with a foam roller allowing a drying time of 18 hours between coats. The panels were equilibrated in the dark for 7 days. Subsamples were cut (each 50 mm×50 mm). The samples were inoculated with a suspension of the test bacteria and then incubated in chambers (1 per species) at 20° C. and 65% relative humidity.
The activity of the immobilized BIT/ZnO complex from Example 8 as a dry-film bactericide after aging against Pseudomonas aeruginosa DSM 939 was determined in the paint described in example 15 according to the JIS Z2801 test. The microbiological test was performed according to the procedure described in Example 16. After equilibration, the specimens were leached in water (24 hours) to simulate use conditions in a severe environment. The paint film was cleaned by water jet.

[5] = test system: Escherichia coli; assay: JIS Z2801 test after 24 h water leaching (severe environmental conditions), interior flat paint; type: cell-based; settings: specimens leached in water 24 hours; contact time 24 hrs; active conc. 0.05%
Description: as §2
The activity of the immobilized BIT/ZnO complex from Example 8 as a dry-film bactericide after artificial aging against Escherichia coli was determined in ICI UK, Diamond Matt paint, a commercially available water-based interior flat paint (40% acrylic binder) according to the JIS Z2801 test. The paint specimens were prepared as described in example 19. The microbiological test was performed according to the procedure described in Example 16. After equilibration, the specimens were leached in water (24 hours) to simulate use conditions in a severe environment. The paint film was cleaned by water jet.

[6] = test system: Escherichia coli; assay: JIS Z2801:2000 (E) test, water-based interior flat paint; type: cell-based; settings: contact time 8 hrs; active conc. 0.05%
Description: The activity of the immobilized BIT/ZnO complex from Example 9 as a dry-film bactericide against Escherichia coli was determined in ICI UK, Diamond Matt is paint, a commercially available water-based interior flat paint (40% acrylic binder) according to the JIS Z2801:2000 (E) test (Japanese Industrial Standard Z2801:2000 (E) test, Antimicrobial products—Test for antimicrobial activity and efficacy).
as §2
Swabs were employed for recovery of the bacteria. From the blank sample 1.8×10^5 cfu/cm^2 were recovered. This number was taken as the starting bacterial load on the surface.

[7] = test system: Pseudomonas aeruginosa DSM 939; assay: JIS Z2801 test, interior acrylic wall paint of example 15; type: cell-based; settings: contact time 8 hrs; active conc. 0.05%
Description: as §2
The activity of the immobilized BIT/ZnO complex from Example 8 as a dry-film bactericide against Pseudomonas aeruginosa DSM 939 was determined in the paint described in example 15 according to the JIS Z2801 test. The microbiological test was performed according to the procedure described in to Example 16.

[8] = test system: Pseudomonas aeruginosa DSM 939; assay: JIS Z2801:2000 (E) test, water-based interior flat paint; type: cell-based; settings: contact time 8 hrs; active conc. 0.05%
Description: as §2
as §1, with “in” for “in an”, “JIS Z2801:2000 (E) test. The microbiological test was performed according to the procedure” for “modified Swiss Standard SNV195120, which is”, “in Example 16.” for “below”

CN(C)C(=S)SSC(=S)N(C)C [Thiram, tetramethylthiuram disulfide]
Psa unleached ([1]; active conc. 0.1%): 0 | Psa unleached ([1]; active conc. 0.2%): 0 | Psa unleached ([2]; active conc. 0.1%): G | Psa leached 24 h ([2]; active conc. 0.1%): G | Psa unleached ([2]; active conc. 0.2%): G | Psa leached 24 h ([2]; active conc. 0.2%): G

O=c1[nH]sc2ccccc12 [BIT, 1,2-benzisothiazolin-3-one]
solubility of BIT in methanol [3]: greater than 5%

Zinc Pyrithione [ZPT]
Kill rate % related to blank paint [4]: 85.5% | Log (Cfu/cm^2) [4]: 3.04 Log (Cfu/cm^2) | Kill rate % related to blank paint [5]: 20% | Log (Cfu/cm^2) [5]: 3.04 Log (Cfu/cm^2) | Kill rate % related to blank paint [6]: 96.4% | Log (Cfu/cm^2) [6]: 3.76 Log (Cfu/cm^2) | Kill rate % related to blank paint [7]: 39.5% | Log (Cfu/cm^2) [7]: 4.66 Log (Cfu/cm^2) | Kill rate % related to blank paint [8]: 69.40% | Log (Cfu/cm^2) [8]: 4.18 Log (Cfu/cm^2)

From patent publication US8350049B2, “Immobilized 1,2-benzisothiazolin-3-one” (priority 2006, dated 2013)
